Data on 1 compound can be found in patent US20240352502A1, “ANALYTICAL METHODS FOR BACTERIAL IDENTIFICATION AND ANTIBIOTIC SUSCEPTIBILITY TESTING IN BIOLOGICAL SAMPLES” (UNIVERSITY OF SCIENCE AND TECHNOLOGY OF CHINA, priority 2021, published 2024).

This assay relates to E. coli. The experiment in a line: Antibiotic susceptibility test of a single living bacterium in whole blood by single-bacterium mass spectrometry (metabolite signal change). It is filed as cell-based, Escherichia coli. To be noted: E. coli from whole blood supernatant; 10 μL of 8 mg/mL kanamycin or 10 μL of 2 mg/mL norfloxacin added into 500 μL; 30 min at 37° C.; FIG. 12. The protocol:
1 mL of whole blood was taken and placed in a centrifuge tube, centrifuged at 3000 rpm for 8 min; the blood cell pellet was discarded; 10 μL of 8 mg/mL kanamycin and 10 μL of 2 mg/mL norfloxacin were respectively added into 500 μL of the supernatant containing the bacterium, and incubated with shaking at 37° C. After 30 min of incubation, the supernatant was centrifuged at 10,000 rpm for 8 min; the supernatant was discarded, and the pellet was resuspended in 100 μL of deionized water; the solution containing the bacterium not having been incubated with the antibiotic was used as a reference group, and the same operations as above were performed. […]
10 μL of 100 μM Acridine Orange as a staining agent was added into the solution containing the bacterium obtained in step (1) and step (2) to perform staining for 15 min. […] The resuspended solution containing the bacterium was dropped onto a polylysine slide and leave for 30 minutes to allow the bacterium to be adsorbed and fixed on the polylysine slide, and then the polylysine slide was rinsed with deionized water and dried at room temperature; the location of bacteria was observed under a fluorescence microscope. […]

For the compound `CCn1cc(C(=O)O)c(=O)c2cc(F)c(N3CCNCC3)cc21` [norfloxacin], the “change of alanyl-threonine (m/z 191) signal in a single bacterium after incubation with antibiotic” value is “significantly reduced”.
